From patent US8841233B2, “Herbicidal compositions comprising 4-amino-3-chloro-5-fluoro-6-(4-chloro-2-fluoro-3-methoxyphenyl) pyridine-2-carboxylic acid or a derivative thereof and 4-hydroxyphenyl-pyruvate dioxygenase (HPPD) inhibitors” (Dow Agrosciences LLC, priority 2012, dated 2014)

Test system: IPOHE
Test: Post-emergence foliar-applied weed control, greenhouse (Example I);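 for Visual Weed Control (%) - 20 DAA IPOHE Obs: visual score 0 no injury to 100 complete kill versus untreated plants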
Type: in vivo, Ipomoea hederacea Jacq.
Text: Evaluation of Post-emergence Foliar-Applied Herbicidal Mixtures for Weed Control in Direct Seeded Rice
Seeds or nutlets of the desired test plant species were planted in a soil matrix prepared by mixing a loam or sandy loam soil (e.g., 28.6 percent silt, 18.8 percent clay, and 52.6 percent sand, with a pH of about 5.8 and an organic matter content of about 1.8 percent) and calcareous grit in an 80 to 20 ratio. The soil matrix was contained in plastic pots with a volume of 1 quart and a surface area of 83.6 square centimeters (cm^2). When required to ensure good germination and healthy plants, a fungicide treatment and/or other chemical or physical treatment was applied. The plants were grown for 8-22 days in a greenhouse with an approximate 14 h photoperiod which was maintained at about 29° C. during the day and 26° C. during the night. Nutrients (Peters Excel® 15-5-15 5-Ca 2-Mg and iron chelate) were applied in the irrigation solution as needed and water was added on a regular basis. Supplemental lighting was provided with overhead metal halide 1000-Watt lamps as necessary. The plants were employed for testing when they reached the first through fourth true leaf stage.
Treatments consisted of the acid or esters of 4-amino-3-chloro-5-fluoro-6-(4-chloro-2-fluoro-3-methoxy-phenyl)pyridine-2-carboxylic acid (Compound A), each formulated as an SC (suspension concentrate), and various herbicidal components alone and in combination. Forms of Compound A were applied on an acid equivalent basis.
Other herbicidal components were applied on an active ingredient basis and included 4-hydroxyphenyl pyruvate dioxygenase (HPPD)-inhibiting herbicides mesotrione formulated as Callisto®, sulcotrione formulated as Mikado®, pyrazolynate formulated as Sunbird® 10% GR, and benzobicyclon formulated as Benzobicyclon 3.5%.
Treatment requirements were calculated based upon the rates being tested, the concentration of active ingredient or acid equivalent in the formulation, and a 12 mL application volume at a rate of 187 L/ha.
For treatments comprised of formulated compounds, measured amounts of compounds were placed individually in 25 mL glass vials and diluted in a volume of 1.25% (v/v) Agri-Dex® crop oil concentrated to obtain 12× stock solutions. […] Application solutions were prepared by adding an appropriate amount of each stock solution (e.g., 1 mL) and diluted to the appropriate final concentrations with the addition of 10 mL of an aqueous mixture of 1.25% (v/v) crop oil concentrate so that the final spray solutions contained 1.25+/−0.05% (v/v) crop oil concentrate.
For treatments comprised of formulated and technical compounds, weighed amounts of the technical materials were placed individually in 25 mL glass vials and dissolved in a volume of 97:3 v/v acetone/DMSO to obtain 12× stock solutions, and measured amounts of the formulated compounds were placed individually in 25 mL glass vials and diluted in a volume of 1.5% (v/v) crop oil concentrate or water to obtain 12× stock solutions. […] Application solutions were prepared by adding an appropriate amount of each stock solution (e.g., 1 mL) and diluted to the appropriate final concentrations with the addition of an appropriate amount of an aqueous mixture of 1.5% (v/v) crop oil concentrate so that the final spray solutions contained 1.25% (v/v) crop oil concentrate. As required, additional water and/or 97:3 v/v acetone/DMSO was added to individual application solutions so that the final acetone and DMSO concentrations of the application solutions being compared were 8.1% and 0.25%, respectively.
All stock solutions and applications solutions were visually inspected for compound compatibility prior to application. Spray solutions were applied to the plant material with an overhead Mandel track sprayer equipped with a 8002E nozzles calibrated to deliver 187 L/ha over an application area of 0.503 m^2 at a spray height of 18 to 20 inches (46 to 50 cm) above average plant canopy height. […]

| SMILES | Visual Control (%) - 20 DAA IPOHE Obs (4.38 gae/ha) [%] | Visual Control (%) - 20 DAA IPOHE Obs (8.75 gae/ha) [%] | Visual Control (%) - 20 DAA IPOHE Obs (17.5 gae/ha) [%] | Visual Weed Control (%) - 21 DAA IPOHE Obs (17.5 gae/ha) [%] | Visual Weed Control (%) - 21 DAA IPOHE Obs (35 gae/ha) [%] | Visual Weed Control (%) - 20 DAA IPOHE Obs (4.38 gae/ha) [%] | Visual Weed Control (%) - 20 DAA IPOHE Obs (8.75 gae/ha) [%] | Visual Weed Control (%) - 20 DAA IPOHE Obs (17.5 gae/ha) [%] |
| --- | --- | --- | --- | --- | --- | --- | --- | --- |
| COc1c(Cl)ccc(-c2nc(C(=O)O)c(Cl)c(N)c2F)c1F [Compound A Acid, 4-amino-3-chloro-6-(4-chloro-2-fluoro-3-methoxyphenyl)-5-fluoropyridine-2-carboxylic acid] | 10 | 35 | 40 | 25 | 48 | – | – | – |
| COc1c(Cl)ccc(-c2nc(C(=O)OCc3ccccc3)c(Cl)c(N)c2F)c1F [Compound A Benzyl Ester, benzyl ester of 4-amino-3-chloro-5-fluoro-6-(4-chloro-2-fluoro-3-methoxy-phenyl)pyridine-2-carboxylic acid] | – | – | – | – | – | 10 | 10 | 20 |
